Values quoted from earlier work in patent publication US7521430B2, “N-glucoside compounds having an inhibitory activity against sodium-dependent glucose transporter” (Mitsubishi Tanabe Pharma Corporation, priority 2003, dated 2009).

Test system: diabetic animal models
Settings: continuous subcutaneous administration

## O=C(CCc1ccc(O)cc1)c1c(O)cc(O)cc1O[C@@H]1O[C@H](CO)[C@@H](O)[C@H](O)[C@H]1O [phlorizin]
  hyperglycemia / blood glucose level: hyperglycemia is normalized
